Experimental data: patent US10508077B2 (FORMA Therapeutics, Inc., priority 2015, dated 2019)

Each molecule was assayed against T1, Full length human recombinant HDAC8 protein (Homo sapiens, UniProt Q9BY41) (assay: In vitro histone deacetylase assay: enzymatic HDAC8 assay, electrophoretic mobility shift). Settings: substrate RHKK(Ac)-NH2, 1 nM enzyme, compounds listed under IC50 range headings.
T1 construct: Full length human recombinant HDAC8 protein was expressed in baculoviral system; made in house
T1 sequence (Q9BY41 1-377): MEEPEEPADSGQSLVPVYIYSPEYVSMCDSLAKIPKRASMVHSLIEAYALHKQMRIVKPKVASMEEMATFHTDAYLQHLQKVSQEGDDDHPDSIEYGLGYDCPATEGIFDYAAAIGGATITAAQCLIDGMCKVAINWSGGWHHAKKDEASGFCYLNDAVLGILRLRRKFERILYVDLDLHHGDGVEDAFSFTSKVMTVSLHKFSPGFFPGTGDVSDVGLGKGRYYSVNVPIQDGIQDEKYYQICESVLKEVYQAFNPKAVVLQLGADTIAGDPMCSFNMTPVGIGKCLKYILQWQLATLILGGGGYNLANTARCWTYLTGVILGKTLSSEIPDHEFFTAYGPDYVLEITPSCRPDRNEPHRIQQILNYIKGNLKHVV
Type: biochemical
Description: The enzymatic HDAC8 assay was performed using electrophoretic mobility shift assay. Full length human recombinant HDAC8 protein was expressed in baculoviral system and purified by affinity chromatography. The enzymatic reactions were assembled in 384 well plates in a total volume of 25 μL in a reaction buffer composing: 100 mM HEPES, pH7.5, 25 mM KC, 0.1% bovine serum albumin, 0.01% Triton X-100, 1% DMSO (from compounds) 2 μM of the fluorescently labeled peptide substrate and enzyme. The enzyme was added at a final concentration of 1 nM. The peptide substrate RHKK(Ac)-NH2 was used. The compounds were tested at 12 concentrations spaced by 3× dilution intervals. Negative control samples (0%-inhibition in the absence of inhibitor) and positive control samples (100%-inhibition) were assembled in replicates of four in each assay plate. The reactions were incubated at 25° C. and quenched by the addition of 45 μL of termination buffer (100 mM HEPES, pH 7.5, 0.01% Triton X-100, 0.05% SDS).
The terminated assay plates were analyzed on LabChip® 3000 microfluidic electrophoresis instrument (Perkin Elmer/Caliper Life Sciences). The fluorescence intensity of the electrophoretically separated de-acetylated product and substrate peptide was measured. Activity in each sample was determined as the product to sum ratio (PSR): P/(S+P), where P is the peak height of the product peptide and S is the peak height of the substrate peptide. Percent inhibition (Pinh) is determined using the following equation: Pinh=(PSR0%−PSRinh)/(PSR0%−PSR100%)*100, where PSRinh is the product sum ratio in the presence of inhibitor, PSR0% is the average product sum ration in the absence of inhibitor and PSR 100% is the average product sum ratio in 100%-inhibition control samples. The IC50 values of inhibitors were determined by fitting the %-inhibition curves with 4 parameter dose-response model using XLfit 4 software. Ranges of IC50 values for compounds of the invention are disclosed in Table 26.

IC50, < 1000 nM:
CC(C)(C)OC(=O)N1CCC2(CC1)CCN(c1ccccc1/C=C/C(=O)NO)C2 [Example I-111, tert-butyl (E)-2-(2-(3-(hydroxyamino)-3-oxoprop-1-en-1-yl)phenyl)-2,8-diazaspiro[4.5]decane-8-carboxylic]
CC(C)(C)OC(=O)N1CCC2(CCN(c3ccccc3/C=C/C(=O)NO)C2)C1 (stereo not drawn) [Example I-112, tert-butyl (E)-7-(2-(3-(hydroxyamino)-3-oxoprop-1-en-1-yl)phenyl)-2,7-dizazspiro[4.4]nonane-2-carboxylate]
O=C(/C=C/c1ccccc1N1CC2(CC(NC(=O)OCc3ccccc3)CS2(=O)=O)C1)NO (stereo not drawn) [Example I-114, benzyl (E)-(2-(2-(3-(hydroxyamino)-3-oxoprop-1-en-1-yl)phenyl)-5,5-dioxido-5-thia-2-azaspiro[3,4]octan-7-yl)carbamate]
O=C(/C=C/c1ccccc1NCc1nc2ccc(CCCO)cc2[nH]1)NO [Example I-116, (E)-N-hydroxy-3-(2-(((6-(3-hydroxypropyl)-1H-benzo[d]imidazol-2-yl)methyl)amino)phenyl)acrylamide]
NC1CC2(CN(c3ccccc3/C=C/C(=O)NO)C2)S(=O)(=O)C1 (stereo not drawn) [Example I-117, (E)-3-(2-(7-amino-5,5-dioxido-5-thia-2-azaspiro[3.4]octan-2-yl)phenyl)-N-hydroxyacrylamide 2,2,2-trifluoroacetate]
CC(C)N(C(=O)c1cccc(C(F)(F)F)c1)c1ccccc1/C=C/C(=O)NO [Example I-118, (E)-N-(2-(3-(hydroxyamino)-3-oxoprop-1-en-1-yl)phenyl)-N-isopropyl-3-(trifluoromethyl)benzamide]
CN(Cc1cccc(C(F)(F)F)c1)c1ccccc1/C=C/C(=O)NO [Example I-119, (E)-N-hydroxy-3-(2-(methyl(3-(trifluoromethyl)benzyl)amino)phenyl)acrylamide]
O=C(/C=C/c1ccccc1NCc1ccc(-c2ccccc2)c(C(F)(F)F)c1)NO [Example I-120, (E)-N-hydroxy-3-(2-(((2-(trifluoromethyl)-[1,1′-biphenyl]-4-yl)methyl)amino)phenyl)acrylamide]
Cn1c(CNc2ccccc2/C=C/C(=O)NO)nc(Cl)c1Cl [Example I-121, (E)-3-(2-(((4,5-dichloro-1-methyl-1H-imidazol-2-yl)methyl)amino)phenyl)-N-hyroxyacrylamide]
O=C(/C=C/c1cccnc1NC(=O)c1cccc(C(F)(F)F)c1)NO [Example I-122]
O=C(/C=C/c1ncccc1NC(=O)c1cccc(C(F)(F)F)c1)NO [Example I-124, (E)-N-(2-(3-(hydroxyamino)-3-oxoprop-1-en-1-yl)pyridin-3-yl)-3-(trifluoromethyl)benzamide]
CCCCC(=O)NC1CCN(c2ccccc2/C=C/C(=O)NO)CC1 [Example I-125, (E)-N-(1-(2-(3-(hydroxyamino)-3-oxoprop-1-en-1-yl)phenyl)piperidin-4-yl)pentanamide]
O=C(/C=C/c1ccccc1N1CCC(NC(=O)C2CCCCC2)CC1)NO [Example I-126, (E)-N-(1-(2-(3-(hydroxyamino)-3-oxoprop-1-en-1-yl)phenyl)piperidin-4-yl)cyclohexanecarboxamide]
CS(=O)(=O)N1CCCC(C(=O)NC2CCN(c3ccccc3/C=C/C(=O)NO)CC2)C1 (stereo not drawn) [Example I-127]
O=C(/C=C/c1ccccc1N1CCC(NC(=O)Cc2cccs2)CC1)NO [Example I-128, (E)-N-hydroxy-3-(2-(4-(2-(thiophen-2-yl)acetamido)piperidin-1-yl)phenyl)acrylamide]
O=C(/C=C/c1ccccc1N1CCC(NC(=O)CSc2ccc(F)cc2)CC1)NO [Example I-129, (E)-3-(2-(4-(2-((4-fluorophenyl)thio)acet-amido)piperidin-1-yl)phenyl)-N-hydroxyacrylamide]
O=C(/C=C/c1ccccc1N1CCC(NC(=O)CCC(F)(F)F)CC1)NO [Example I-130, (E)-4,4,4-trifluoro-N-(1-(2-(3-(hydroxyamino)-3-oxoprop-1-en-1-yl)phenyl)piperidin-4-yl)butanamide]
CCSCC(=O)NC1CCN(c2ccccc2/C=C/C(=O)NO)CC1 [Example I-131]
O=C(/C=C/c1ccccc1N1CCC(NC(=O)c2cccnc2)CC1)NO [Example I-132]
CNc1ccc(C(=O)NC2CCN(c3ccccc3/C=C/C(=O)NO)CC2)cc1 [Example I-133, (E)-N-(1-(2-(3-(hydroxyamino)-3-oxoprop-1-en-1-yl)phenyl)piperidin-4-yl)-4-(methylamino)benzamide]
CS(=O)(=O)N1CCC(CC(=O)NC2CCN(c3ccccc3/C=C/C(=O)NO)CC2)CC1 [Example I-135, (E)-N-hydroxy-3-(2-(4-(2-(1-(methylsulfonyl)piperidin-4-yl)acetamido)piperidin-1-yl)phenyl)acrylamide]
CS(=O)(=O)CCCC(=O)NC1CCN(c2ccccc2/C=C/C(=O)NO)CC1 [Example I-136, (E)-N-(1-(2-(3-(hydroxyamino)-3-oxoprop-1-en-1-yl)phenyl)piperidin-4-yl)-4-(methylsulfonyl)butan-amide]
O=C(/C=C/c1ccccc1N1CCC(NC(=O)CCN2CCCC2=O)CC1)NO [Example I-137, (E)-N-hydroxy-3-(2-(4-(3-(2-oxopyrrolidin-1-yl)propanamido)piperidin-1-yl)phenyl)acrylamide]
O=C(/C=C/c1ccccc1N1CCC(NC(=O)CN2CCS(=O)(=O)CC2)CC1)NO [Example I-138, (E)-3-(2-(4-(2-(1,1-dioxidothiomorpholino)acetamido)piperidin-1-yl)phenyl)-N-hydroxyacrylamide]
COc1cc(CC(=O)NC2CCN(c3ccccc3/C=C/C(=O)NO)CC2)ccc1O [Example I-139, (E)-N-hydroxy-3-(2-(4-(2-(4-hydroxy-3-methoxyphenyl)acetami-do)piperidin-1-yl)phenyl)acrylamide]
O=C(/C=C/c1ccccc1N1CCC(NC(=O)C2Cc3ccccc3C2)CC1)NO [Example I-140, (E)-N-(1-(2-(3-(hydroxyamino)-3-oxoprop-1-en-1-yl)phenyl)piperidin-4-yl)-2,3-dihydro-1H-indene-2-carboxamide]
Cc1ccccc1Oc1ncccc1C(=O)NC1CCN(c2ccccc2/C=C/C(=O)NO)CC1 [Example I-141, (E)-N-(1-(2-(3-(hydroxyamino)-3-oxoprop-1-en-1-yl)phenyl)piperdin-4-yl)-2-(o-tolyloxy)nicotinamide]
O=C(/C=C/c1ccccc1N1CCC(NC(=O)C2CCC(F)(F)CC2)CC1)NO [Example I-142, (E)-4,4-difluoro-N-(1-(2-(3-(hydroxyamino)-3-oxoprop-1-en-1-yl)phenyl)piperidin-4-yl)cyclohexane-1-carboxamide]
CC1(CCC(=O)NC2CCN(c3ccccc3/C=C/C(=O)NO)CC2)CC1 [Example I-143, (E)-N-hydroxy-3-(2-(4-(3-(1-methylcyclopropyl)propan-amido)piperidin-1-yl)phenyl)acrylamide]
CN(CC(=O)NC1CCN(c2ccccc2/C=C/C(=O)NO)CC1)S(C)(=O)=O [Example I-144, (E)-N-hydroxy-3-(2-(4-(2-(N-methylmethylsulfonamido)acetamido)piperidin-1-yl)phenyl)acrylamide]
O=C(/C=C/c1ccccc1N1CCC(NC(=O)c2cnn3c2OCCC3)CC1)NO [Example I-145, (E)-N-(1-(2-(3-(hydroxyamino)-3-oxoprop-1-en-1-yl)phenyl)piperidin-4-yl)-6,7-dihydro-5H-pyrazolo[5,1-b][1,3]oxazine-3-carboxamide]
O=C(/C=C/c1ccccc1N1CCC(NC(=O)CC23CCCN2CCC3)CC1)NO [Example I-146]
O=C(/C=C/c1ccccc1N1CCC(NC(=O)c2ccc3cnccc3n2)CC1)NO [Example I-147, (E)-N-(1-(2-(3-(hydroxyamino)-3-oxoprop-1-en-1-yl)phenyl)piperidin-4-yl)-1,6-naphthyridine-2-carboxamide]
